Experimental data taken from US20020159981A1, “Methods of controlling proliferation and differentiation of stem and progenitor cells” (Gamida-Cell Ltd., priority 1999, published 2002).

What was measured:
[1] = test system: Cord blood-derived CD34 cells; assay: Short-term liquid culture of CD34 cells: cell number, CD34 cells, colony forming cells; type: cell-based, human
Description: The interphase layer of mononuclear cells were collected, washed three times with Ca/Mg free phosphate buffered saline containing 1% bovine serum albumin (BSA). The cells were incubated for 30 min. at 4° C. with murine monoclonal anti CD34 antibody (0.5 μg/10^6 mononuclear cells) and thereafter isolated using the miniMACS apparatus (Miltenyi-Biotec, Bergisch, Gladbach, Germany) according to the manufacturer's protocol.
Culture procedures: For the expansion of progenitor cells, CD34^+ enriched fractions or unseparated mononuclear cells were seeded at about 1-3×10^4 cells/ml in either alpha minimal essential medium containing 10% preselected fetal calf serum (FCS) (both from GIBCO, Grand Island, N.Y.), or serum-free medium (Progenitor-34 medium, Life Technologies, Grand Island, N.Y.). The media were supplemented with a mixture of growth factors and transition metal chelators. The cultures were incubated at 37° C. in an atmosphere of 5% CO2 in air with extra humidity. Half of the medium was changed weekly with fresh medium containing all the supplements.
Cloning potential evaluations: The cloning potential of cells developed in the liquid culture was assayed, at different intervals, in semi-solid medium. The cells were washed and seeded in 35 mm dishes in methylcellulose containing alpha medium supplemented with recombinant growth factors (SCF, G-CSF, GM-CSF and EPO). Following 2 weeks incubation, the cultures were scored with an inverted microscope. Colonies were classified as blast, mixed, erythroid, myeloid, and megakaryocytic, according to their cellular composition.
Immunofluorescence staining: At different intervals, cells from the liquid cultures were assayed for CD34 antigen. Aliquots were harvested, washed and incubated on ice with FITC-labeled anti CD45 monoclonal antibody and either PE-labeled anti CD34 (HPCA-2) monoclonal antibody or PE-labeled control mouse Ig. After incubation, red cells were lysed with lysing solution, while the remaining cells were washed and analyzed by flow cytometer.
Flow cytometry: Cells were analyzed and sorted using FACStarPlus flow cytometer (Becton-Dickinson, Immunofluorometry systems, Mountain View, Calif.). Cells were passed at a rate of 1,000 cells/second through a […] nozzle, using saline as the sheath fluid. A 488 nm argon laser beam at 250 mW served as the light source for excitation. […] The PMTs was set at the appropriate voltage. Logarithmic amplification was applied for measurements of fluorescence and linear amplification—for forward light scatter. At least 10^4 cells were analyzed.
Cord blood-derived CD34 cells were plated in liquid culture in the presence of: FL—50 ng/ml, SCF—50 ng/ml, IL-6—50 ng/ml, with or without IL-3—20 ng/ml, with or without TEPA—10 μM. On day 7, the percentage of CD34 cells and the total cell number were determined. Aliquots equivalent to 1×10^3 initiating cells were assayed on days 0 and 7 for colony forming cells (CFU) by cloning in semi-solid medium. CFU expansion represents the ratio of CFU present on day 7 to CFU present on day 0.

[2] = test system: embryonal stem cells; assay: Embryonal stem cell culture: differentiation and proliferation; type: cell-based
Description: Thus, embryonal stem cells were cultured for 3-4 days essentially as described in (66), in the presence of LIF (20-100 ng/ml) or TEPA (10-20 μM) and their differentiation compared to non-treated control cells.

[3] = test system: NOD/SCID mice; assay: Engraftment of SCID mice by ex-vivo expanded human hematopoietic cells; type: in vivo; settings: for Engraftment Colonies: 2 weeks ex-vivo, TEPA + Cytokines
Description: Engraftment of SCID mice by ex-vivo expanded human hematopoietic cells: Cord blood purified CD34^+ cells either fresh or following 2 or 4 weeks of ex-vivo culture (plus or minus TEPA) were injected into NOD/SCID mice essentially as described in (56). After 4 weeks, the mice were sacrificed and their femora and tibias were excised and the bone marrow flushed with a syringe fitted with a 25 gauge needle. A single cell suspension was prepared, the cells were washed and an aliquot counted with Trypan blue. In order to quantitate engrafted cells of human origin, cells were stained with FITC-conjugated anti CD45 antibodies and PE-conjugated either anti CD34, CD19 or CD33 antibodies. Anti CD45 antibodies recognize human, but not mouse, cells, and thus, indicates the human origin of the cells. The proliferation and differentiation potential of the engrafted cells was assayed by cloning bone marrow cells in semi-solid medium under conditions that allow specifically growth of human derived colonies essentially as described in (56).

[4] = high doses of early cytokines or early- and late-acting cytokines (Table 1, FIG. 3)

NCCNCCNCCNCCN [TEPA, tetraethylenepentamine]
Cells/ml (×10^4) ([1]; TEPA 10 μM, without IL-3, FL, SCF, IL-6 50 ng/ml each, day 7): 2 ×10^4 cells/ml | total cell number ([1]; cultures supplemented with both early and late cytokines (FIG. 3)): marginal inhibition | clonability [1, 4]: significantly increased | percentage of CD34^+ cells [1, 4]: significantly increased | cell clonability ([1]; low doses of early-acting cytokines, colonies in semi-solid medium (FIG. 1)): significant increase | total cell number ([1]; low doses of early-acting cytokines, compared to cytokines only (FIG. 2)): significant increase | number of CD34^+ cells ([1]; low doses of early-acting cytokines, flow cytometry (FIG. 2)): significant increase | maintaining the undifferentiative phenotype of embryonal stem cells [2]: can replace LIF | Engraftment Colonies ([3]; CB 2 10% FCS (first listed)): 330 per 2 × 10^5 SCID BM cells | Engraftment Colonies ([3]; CB 3 10% FCS): 100 per 2 × 10^5 SCID BM cells | Engraftment Colonies ([3]; CB 6 1% FCS): 350 per 2 × 10^5 SCID BM cells | Engraftment Colonies ([3]; CB 6 10% FCS): 420 per 2 × 10^5 SCID BM cells | cord blood samples that succeeded to engraft the animals ([3]; of 6 samples expanded ex-vivo, without TEPA 2 out of 6): 6
